Laboratory results as given in patent US20200121652A1, “COMPOUNDS HAVING CASPASE INHIBITORY ACTIVITY, PHARMACEUTICAL AGENT CONTAINING SAID COMPOUNDS AND FOR TREATING OR PREVENTING CORNEAL ENDOTHELIAL SYMPTOMS, DISORDERS, OR DISEASES, AND APPLICATION OF SAID PHARMACEUTICAL AGENT” (The Doshisha, priority 2017, published 2020).
Counter-ions that a name gives are not always drawn.

Tested on: immortalized Fuchs' endothelial corneal dystrophy cells
Assay: Concentration-dependent caspase 3/7 activity under TGF-β2 stimulation (Example 3)
Type: cell-based
Settings: Homo sapiens, TGF-β2 10 ng/mL, 28 hours; for activity at 0.01 µM: agent 10 nM; for activity at 0.1 µM: agent 100 nM; for activity at 1 µM: agent 1 μM; for activity at 10 µM: agent 10 μM; for activity at 0.001 µM: agent 1 nM
Description: 7×10^3 immortalized Fuchs' endothelial corneal dystrophy cells were seeded on a 96-well plate and were cultured for 24 hours under the condition of 5% CO2 at 37° C.
After 28 hours under the condition of 5% CO2 at 37° C., cell morphology was observed using a phase difference microscope. Caspase 3/7 activity was then measured using Caspase-Glo 3/7 Assay (Promega, #G8091). DMEM+2% FBS+1% P/S was used as the medium. Caspase 3/7 activity and cell viability in this example were measured using GloMax-Multi Detection System (Promega, E7051).
Caspase 3/7 activity below 80% was used as a indicator indicating whether an agent can be used for treating or preventing a corneal endothelial condition, disorder, or disease, or whether an agent can be used as a caspase inhibitor (the underlines in FIG. 4A-1, FIG. 4A-2 and FIG. 4A-3, and FIG. 4B-1, FIG. 4B-2 and FIG. 4B-3).

Row | Compound | activity at 0.01 µM [%] | activity at 0.1 µM [%] | activity at 1 µM [%] | activity at 10 µM [%] | activity at 0.001 µM [%] | activity at 1 pM (agent 1 pM) [%] | activity at 10 pM (agent 10 pM) [%]
1 | CC(=O)OCC(=O)[C@@]12OC3(CCCC3)O[C@@H]1C[C@H]1[C@@H]3CCC4=CC(=O)C=C[C@]4(C)[C@@]3(F)[C@@H](O)C[C@@]12C [Amcinonide] | ≤ 80 | ≤ 80 | ≤ 80 | ≤ 80 | – | – | –
2 | O=C1CCc2ccc(OCCCCN3CCN(c4cccc(Cl)c4Cl)CC3)cc2N1 [Aripiprazole] | – | – | – | ≤ 80 | – | – | –
3 | CN1CC2c3ccccc3Oc3ccc(Cl)cc3C2C1 (centres unmarked) [Asenapine Maleate] | – | – | – | ≤ 80 | – | – | –
4 | CCC(=O)OCC(=O)[C@@]1(OC(=O)CC)[C@@H](C)C[C@H]2[C@@H]3CCC4=CC(=O)C=C[C@]4(C)[C@@]3(Cl)[C@@H](O)C[C@@]21C [Beclomethasone Dipropionate] | – | ≤ 80 | ≤ 80 | ≤ 80 | – | – | –
5 | C[C@H]1C[C@H]2[C@@H]3CCC4=CC(=O)C=C[C@]4(C)[C@@]3(F)[C@@H](O)C[C@]2(C)[C@@]1(O)C(=O)CO [Betamethasone] | – | ≤ 80 | ≤ 80 | ≤ 80 | – | – | –
6 | CC(C)C[C@H]1C(=O)N2CCC[C@H]2[C@]2(O)O[C@](NC(=O)[C@@H]3C=C4c5cccc6[nH]c(Br)c(c56)C[C@H]4N(C)C3)(C(C)C)C(=O)N12 [Bromocriptine Mesylate] | – | – | – | ≤ 80 | – | – | –
7 | CCCC1O[C@@H]2C[C@H]3[C@@H]4CCC5=CC(=O)C=C[C@]5(C)[C@H]4[C@@H](O)C[C@]3(C)[C@]2(C(=O)CO)O1 (some centres unmarked) [Budesonide] | ≤ 80 | ≤ 80 | ≤ 80 | ≤ 80 | ≤ 80 | – | –
8 | C=C1/C(=C\C=C2/CCC[C@]3(C)[C@@H]([C@H](C)CCCC(C)(C)O)CC[C@@H]23)C[C@@H](O)C[C@@H]1O [Calcitriol] | – | – | – | ≤ 80 | – | – | –
9 | COc1ccccc1OCCNCC(O)COc1cccc2[nH]c3ccccc3c12 (centres unmarked) [Carvedilol] | – | – | – | ≤ 80 | – | – | –
10 | CCC(=O)O[C@]1(C(=O)CCl)[C@@H](C)C[C@H]2[C@@H]3CCC4=CC(=O)C=C[C@]4(C)[C@@]3(F)[C@@H](O)C[C@@]21C [Clobetasol Propionate] | ≤ 80 | ≤ 80 | ≤ 80 | ≤ 80 | – | ≤ 80 | –
11 | O=C(O)c1ccc(-n2nc(-c3ccccc3O)nc2-c2ccccc2O)cc1 [Deferasirox] | – | – | – | ≤ 80 | – | – | –
12 | CC1(C)O[C@@H]2C[C@H]3[C@@H]4CCC5=CC(=O)C=C[C@]5(C)[C@H]4[C@@H](O)C[C@]3(C)[C@]2(C(=O)CO)O1 [Desonide] | – | ≤ 80 | ≤ 80 | ≤ 80 | – | – | –
13 | C[C@@H]1C[C@H]2[C@@H]3CCC4=CC(=O)C=C[C@]4(C)[C@@]3(F)[C@@H](O)C[C@]2(C)[C@H]1C(=O)CO [Desoximetasone] | ≤ 80 | ≤ 80 | ≤ 80 | ≤ 80 | – | – | –
14 | C[C@@H]1C[C@H]2[C@@H]3CCC4=CC(=O)C=C[C@]4(C)[C@@]3(F)[C@@H](O)C[C@]2(C)[C@@]1(O)C(=O)CO [Dexamethasone] | ≤ 80 | ≤ 80 | ≤ 80 | ≤ 80 | – | – | –
15 | CCCC(=O)O[C@]1(C(=O)COC(C)=O)CC[C@H]2[C@@H]3C[C@H](F)C4=CC(=O)C=C[C@]4(C)[C@@]3(F)[C@@H](O)C[C@@]21C [Difluprednate] | ≤ 80 | ≤ 80 | ≤ 80 | ≤ 80 | ≤ 80 | – | –
16 | CN1C[C@H](C(=O)N[C@]2(C)O[C@@]3(O)[C@@H]4CCCN4C(=O)[C@H](Cc4ccccc4)N3C2=O)C[C@@H]2c3cccc4[nH]cc(c34)C[C@H]21 [Dihydroergotamine Mesylate] | – | – | – | ≤ 80 | – | – | –
17 | CO[C@H]1C[C@@H]2CC[C@@H](C)[C@@](O)(O2)C(=O)C(=O)N2CCCC[C@H]2C(=O)O[C@H]([C@H](C)C[C@@H]2CC[C@@H](OCCO)[C@H](OC)C2)CC(=O)[C@H](C)/C=C(\C)[C@@H](O)[C@@H](OC)C(=O)[C@H](C)C[C@H](C)/C=C/C=C/C=C/1C [Everolimus] | ≤ 80 | ≤ 80 | ≤ 80 | ≤ 80 | – | – | –
18 | CC(=O)OCC(=O)[C@@]1(O)CC[C@H]2[C@@H]3CCC4=CC(=O)CC[C@]4(C)[C@@]3(F)[C@@H](O)C[C@@]21C [Fludrocortisone Acetate] | – | ≤ 80 | ≤ 80 | ≤ 80 | – | – | –

Row | Compound | activity at 0.01 µM [%] | activity at 0.1 µM [%] | activity at 1 µM [%] | activity at 10 µM [%] | activity at 0.001 µM [%] | activity at 1 pM (agent 1 pM) [%] | activity at 10 pM (agent 10 pM) [%]
19 | CC1(C)O[C@@H]2C[C@H]3[C@@H]4C[C@H](F)C5=CC(=O)C=C[C@]5(C)[C@@]4(F)[C@@H](O)C[C@]3(C)[C@]2(C(=O)CO)O1 [Fluocinolone Acetonide] | ≤ 80 | ≤ 80 | ≤ 80 | ≤ 80 | – | – | ≤ 80
20 | CC(=O)[C@@]1(O)CC[C@H]2[C@@H]3C[C@H](C)C4=CC(=O)C=C[C@]4(C)[C@@]3(F)[C@@H](O)C[C@@]21C [Fluorometholone] | – | ≤ 80 | ≤ 80 | ≤ 80 | – | – | –
21 | CC1(C)O[C@@H]2C[C@H]3[C@@H]4C[C@H](F)C5=CC(=O)CC[C@]5(C)[C@H]4[C@@H](O)C[C@]3(C)[C@]2(C(=O)CO)O1 [Flurandrenolide] | ≤ 80 | ≤ 80 | ≤ 80 | ≤ 80 | – | – | –
22 | C[C@]12CC[C@@H]3c4ccc(O)cc4C[C@@H](CCCCCCCCC[S+]([O-])CCCC(F)(F)C(F)(F)F)[C@H]3[C@@H]1CC[C@@H]2O (some centres unmarked) [Fulvestrant] | ≤ 80 | ≤ 80 | ≤ 80 | ≤ 80 | – | – | –
23 | CC1(C)O[C@@H]2C[C@H]3[C@@H]4CCC5=CC(=O)CC[C@]5(C)[C@@]4(F)[C@@H](O)C[C@]3(C)[C@]2(C(=O)CCl)O1 [Halcinonide] | ≤ 80 | ≤ 80 | ≤ 80 | ≤ 80 | – | – | –
24 | CC(=O)N1CCN(c2ccc(OCC3COC(Cn4ccnc4)(c4ccc(Cl)cc4Cl)O3)cc2)CC1 (centres unmarked) [Ketoconazole] | – | – | – | ≤ 80 | – | – | –
25 | C[C@H]1C[C@@H]2[C@H]([C@@H](O)C[C@@]3(C)[C@H]2CC[C@]3(O)C(=O)CO)[C@@]2(C)C=CC(=O)C=C12 [Methylprednisolone] | – | ≤ 80 | ≤ 80 | ≤ 80 | – | – | –
26 | C[C@@H]1C[C@H]2[C@@H]3CCC4=CC(=O)C=C[C@]4(C)[C@@]3(Cl)[C@@H](O)C[C@]2(C)[C@@]1(OC(=O)c1ccco1)C(=O)CCl [Mometasone Furoate] | ≤ 80 | ≤ 80 | ≤ 80 | ≤ 80 | – | – | –
27 | COc1c(C)c2c(c(O)c1C/C=C(\C)CCC(=O)OCCN1CCOCC1)C(=O)OC2 [Mycophenolate Mofetil] | ≤ 80 | ≤ 80 | ≤ 80 | ≤ 80 | – | – | –
28 | COc1c(C)c2c(c(O)c1C/C=C(\C)CCC(=O)O)C(=O)OC2 [Mycophenolic Acid] | ≤ 80 | ≤ 80 | ≤ 80 | ≤ 80 | – | – | –
29 | COC(=O)C1=C(C)NC(C)=C(C(=O)OCC(C)C)C1c1ccccc1[N+](=O)[O-] (centres unmarked) [Nisoldipine] | – | – | – | ≤ 80 | – | – | –
30 | CC(=O)Oc1ccccc1C(=O)Nc1ncc([N+](=O)[O-])s1 [Nitazoxanide] | – | – | – | ≤ 80 | – | – | –
31 | CC[C@@H]1/C=C(\C)C[C@H](C)C[C@H](OC)[C@H]2O[C@@](O)(C(=O)C(=O)N3CCCC[C@H]3C(=O)O[C@H](/C(C)=C/[C@@H]3CC[C@H](Cl)[C@H](OC)C3)[C@H](C)[C@@H](O)CC1=O)[C@H](C)C[C@@H]2OC [Pimecrolimus] | ≤ 80 | – | ≤ 80 | ≤ 80 | – | – | –
32 | C[C@]12C=CC(=O)C=C1CC[C@@H]1[C@@H]2[C@@H](O)C[C@@]2(C)[C@H]1CC[C@]2(O)C(=O)CO [Prednisolone] | – | ≤ 80 | ≤ 80 | ≤ 80 | – | – | –
33 | CCc1nc(N)nc(N)c1-c1ccc(Cl)cc1 [Pyrimethamine] | – | – | – | ≤ 80 | – | – | –
34 | CO[C@H]1/C=C/O[C@@]2(C)Oc3c(C)c(O)c4c(O)c(c(/C=N/N5CCN(C6CCCC6)CC5)c(O)c4c3C2=O)NC(=O)/C(C)=C\C=C\[C@H](C)[C@H](O)[C@@H](C)[C@@H](O)[C@@H](C)[C@H](OC(C)=O)[C@@H]1C [Rifapentine] | – | – | ≤ 80 | – | – | – | –
35 | Cc1ccc(O)c([C@H](CCN(C(C)C)C(C)C)c2ccccc2)c1 [Tolterodine Tartrate] | ≤ 80 | – | ≤ 80 | ≤ 80 | ≤ 80 | – | –
36 | CC1(C)O[C@@H]2C[C@H]3[C@@H]4CCC5=CC(=O)C=C[C@]5(C)[C@@]4(F)[C@@H](O)C[C@]3(C)[C@]2(C(=O)CO)O1 [Triamcinolone Acetonide] | ≤ 80 | ≤ 80 | ≤ 80 | ≤ 80 | – | – | –
